Measured values published in publication PMC11012005 (International Journal of Molecular Sciences, 2024).
Non-standard residues stand in square brackets, D forms with d. Residues, ends and D or L forms follow the SMILES beside them.

Key:
mice [1] = settings: s.c., 31 µmol/kg (10 mg/kg); cited from earlier work
mice [2] = settings: repeated s.c. administration, 15 µmol/kg (5 mg/kg); cited from earlier work
human MOR [3] = target: T1, human MOR (Homo sapiens, UniProt P35372); assay: [35S]GTPγS binding assay, CHO-hMOR cell membranes; type: biochemical; settings: for % stim.: relative to reference MOR agonist DAMGO, mean ± SEM, n = 3–4
T1 construct: expressed in transfected cells; host or cells: CHO cells (CHO-hMOR), gift of Dr. Lawrence Toll, SRI International
Description: All data are presented as mean ± SEM. A p < 0.05 was considered statistically significant.

human NOP receptor = target: T2, human NOP receptor (Homo sapiens, UniProt P41146); assay: Radioligand binding, [3H]nociceptin, CHO-hNOP cell membranes; settings: for Ki: CHO-hNOP membranes, [3H]nociceptin 0.1 nM, n = 3, read-out: Opioid Receptor Binding (Ki, nM) NOP
T2 construct: expressed in transfected cells; host or cells: CHO cells (CHO-hNOP), gift of Dr. Lawrence Toll, SRI International

human KOR = target: T3, human KOR (Homo sapiens, UniProt P41145); assay: Radioligand competition binding, [3H]U69,593, CHO-hKOR cell membranes; settings: for Ki: CHO-hKOR membranes, [3H]U69,593 1 nM, mean ± SEM, n = 3, read-out: Opioid Receptor Binding (Ki, nM) KOR
T3 construct: expressed in transfected cells; host or cells: CHO cells (CHO-hKOR), gift of Dr. Lawrence Toll, SRI International

mice [4] = assay: Rotarod test after s.c. administration; type: in vivo; settings: 7.8 and 39 µmol/kg, any time point, vs. saline
Method: (§1) Experiments were performed with male CD1 mice (8–10 weeks old, 30–35 g body weight) purchased from Janvier Labs (Le Genest-Saint-Isle, France). All animal care and experimental procedures were in accordance with the ethical guidelines for the animal welfare standards of the European Communities Council Directive (2010/63/EU) and were approved by the Committee of Animal Care of the Austrian Federal Ministry of Science and Research. Mice were group-housed (maximum of 5 animals per cage) in a temperature- (21–22 °C) and humidity-controlled (60–70%) specific pathogen-free room with a 12 h light/dark cycle and with free access to food and water. LENART01 and naloxone were prepared in sterile physiological 0.9% saline solution. Tested doses of LENART01 were 0.78, 3.9, 7.8 and 39 µmol/kg (1, 5, 10 and 50 mg/kg, respectively). LENART01 or vehicle (saline) were s.c. administered in a volume of 10 µL/g body weight.
Animals were accustomed to the equipment in two training sessions (30 min apart) one day before testing. […] The time spent on the drum was recorded for each mouse before (baseline) and after the s.c. administration of saline or test compound (i.e., 30, 60 and 120 min). […] The rotarod data are expressed as percentage (%) changes from the rotarod latencies obtained before (baseline, B) and after drug administration (test, T) and were calculated as follows: 100 × (T/B). […]

human MOR [5] = target: T1, human MOR; assay: Radioligand competition binding, [3H]DAMGO, CHO-hMOR cell membranes; settings: read-out: Opioid Receptor Binding (Ki, nM) MOR
[6] = Body weight changes during chronic s.c. treatment; type: in vivo, mice; settings: chronic administration of 7.8 µmol/kg s.c. twice daily for 5 days, vs. saline
Method: as §1, with “Tested doses of LENART01 were 0.78, 3.9, 7.8 and 39 µmol/kg (1, 5, 10 and 50 mg/kg, respectively). LENART01 or vehicle (saline) were s.c. administered in a volume of 10 µL/g body weight.” left out
(§2) Opioid physical dependence was assessed using naloxone-induced withdrawal syndrome in mice as described previously. […] Animals were immediately placed in clear acrylic cylinders, and signs of opioid withdrawal were recorded for 15 min. Monitored behaviors included vertical jumps, paw tremor, head shakes, urine output, the presence/absence of diarrhea, feces output and body weight loss. For each mouse, a global withdrawal score was calculated by summing the values obtained for each sign (one point was assigned to every 3 jumps and 5 paw tremors, respectively, whereas all other signs were given the absolute values recorded during the test). […]

human DOR = target: T4, human DOR (Homo sapiens, UniProt P41143); assay: Radioligand competition binding, [3H]DPDPE, CHO-hDOR cell membranes
T4 construct: expressed in transfected cells; host or cells: CHO cells (CHO-hDOR), gift of Dr. Lawrence Toll, SRI International

[7] = Pharmacokinetic study: detection in brain homogenate by LC-DAD-MS (BBB permeability); type: in vivo; settings: 7.8 and 39 µmol/kg s.c., mice, brains two hours after treatment
Method: as §1
Two hours after the s.c. administration of LENART01 (doses of 7.8 and 39 µmol/kg), the mice were sacrificed and the brains were removed, washed with sterile physiological 0.9% saline and frozen in dry ice until use. […] The MS spectra were recorded in the negative ion mode only. The UV spectra were recorded over the range of 200–600 nm. […] The presence of the analyzed compound was checked by the monitoring of its pseudomolecular ion eluting at ca. 10 min. […]

mice [8] = assay: Naloxone-precipitated withdrawal syndrome after chronic s.c. treatment; type: in vivo; settings: 7.8 µmol/kg s.c. twice daily for 5 days; naloxone 1 mg/kg s.c. two hours after last injection; vs. saline
Method: as §1, with “Tested doses of LENART01 were 0.78, 3.9, 7.8 and 39 µmol/kg (1, 5, 10 and 50 mg/kg, respectively). LENART01 or vehicle (saline) were s.c. administered in a volume of 10 µL/g body weight.” left out
as §2

CN1CC[C@]23c4c5ccc(O)c4O[C@H]2[C@@H](O)C=C[C@H]3[C@H]1C5 [morphine]
Effect on time on the rotarod (mice [1]): significantly reduced time on the rotarod | Naloxone-induced withdrawal syndrome (mice [2]): significant naloxone-induced withdrawal syndrome

C[C@@H](NC(=O)[C@@H](N)Cc1ccc(O)cc1)C(=O)N[C@@H](Cc1ccccc1)C(=O)NCC(=O)N[C@@H](Cc1ccc(O)cc1)C(=O)N1CCC[C@H]1C(=O)N[C@@H](CO)C(N)=O [Dermorphin, reference compound]
% stim. (human MOR [3]): 104 ± 8% | Ki (human NOP receptor): > 10000 nM | Specific binding to human NOP receptor (human NOP receptor; at the concentration of 10 µM, [3H]nociceptin): no substantial binding | Ki (human KOR): 2710 ± 873 nM

C[C@@H](NC(=O)[C@@H](N)Cc1ccc(O)cc1)C(=O)NCC(=O)N(C)[C@@H](Cc1ccccc1)C(=O)NCCO [DAMGO, reference compound]
% stim. (human MOR [3]): 100%

CSCC[C@H](NC(=O)[C@H](Cc1ccccc1)NC(=O)[C@H](Cc1c[nH]cn1)NC(=O)CNC(=O)[C@H](CO)NC(=O)[C@@H]1CCCN1C(=O)[C@H](Cc1ccc(O)cc1)NC(=O)CNC(=O)[C@H](Cc1ccccc1)NC(=O)[C@@H](C)NC(=O)[C@@H](N)Cc1ccc(O)cc1)C(N)=O [LENART01] (H-Y[dA]FGYPSGHFM-NH2)
Effect on rotarod latencies (motor behavior) (mice [4]): no significant alterations in the rotarod latencies | Ki (human MOR [5]): 11 ± 1.5 nM | Effect on body weights [6]: did not have any significant effect on the body weights | Ki (human DOR; CHO-hDOR membranes, [3H]DPDPE 1 nM, mean ± SEM, n = 3, read-out: Opioid Receptor Binding (Ki, nM) DOR): 227 ± 47 nM | Selectivity Ki Ratios DOR/MOR (human DOR; Ki ratio DOR/MOR): 21 | EC50 (human MOR [3]): 48.5 ± 10.6 nM | % stim. (human MOR [3]): 110 ± 7% | Transport across the BBB (signal in brain homogenate) [7]: no detectable signal | Ki (human NOP receptor): > 10000 nM | Selectivity Ki Ratios NOP/MOR (human NOP receptor; Ki ratio NOP/MOR): >900 | Naloxone-precipitated withdrawal signs (mice [8]): did not induce withdrawal signs | Ki (human KOR): 1310 ± 226 nM | Selectivity Ki Ratios KOR/MOR (human KOR; Ki ratio KOR/MOR): 119
